Data reported in US7691985B2, “Skeletal-targeted radiation to treat bone-associated pathologies” (priority 1999, dated 2010).

Key:
[1] = Pharmacokinetics and patient specific dosimetry of ^166Ho-DOTMP in patients with breast cancer metastatic to bone (Example 6); type: in vivo, human
Method: Eight patients with breast cancer metastatic only to bone initially received a 30 mCi dose of ^166Ho-DOTMP for diagnostic purposes. Pharmacokinetics were assessed via whole body counting, gamma camera imaging, and urine and blood assays for the first 48 hours following injection. Patients were followed with autologous stem cell transplantation for rescue from hematologic toxicity.
Therapy doses were calculated based upon prescribed dose to the red bone marrow using the Medical Internal Radiation Dose (MIRD) technique and percentage localization in the skeleton. Appropriate S-values were provided by Oak Ridge National Laboratory. The desired target dose was 22 Gy to the red marrow calculated by the above technique for each individual. The average red marrow dose was calculated to be 1.97±0.92 cGy/mCi (range: 0.98 cGy/mCi to 3.19 cGy/mCi). Three patients proceeded to therapy, two were disqualified due to low uptake in the skeleton (≦30%; revised qualification: 15%), and three were disqualified for other reasons unrelated to the ^166Ho-DOTMP treatment.

[2] = Phase II multicenter dosimetry study of ^166Ho-DOTMP: safety, biodistribution, pharmacokinetics (Example 9); type: in vivo, human
Method: A 12-patient, Phase II multicenter study was performed to further evaluate the safety, biodistribution and pharmacokinetics of ^166Ho-DOTMP. Each patient was to receive two 30 mCi tracer doses of ^166Ho-DOTMP followed, in eligible patients (those with adequate skeletal uptake parameters), by a therapy dose calculated to deliver 25 Gy to the red marrow. All patients in this study received CBI.

[3] = system: multiple myeloma; test: Single patient: 40 Gy ^166Ho-DOTMP, melphalan 140 mg/m^2 (Example 12); type: in vivo, human
Method: The patient, a person with an original diagnosis of multiple myeloma, was administered a therapeutic dose of ^166Ho-DOTMP of 3875 mCi which was calculated to deliver 40 Gy to the marrow. Post ^166Ho-DOTMP, the patient received a dose of 140 mg/m^2 of melphalan (I.V.). The patients stem cells were reinfused three days after the melphalan and were followed by G-CSF for ten days.

[4] = Stability of ^166Ho-DOTMP with and without stabilizer: radiochemical purity by ITLC, CEC, HPLC (Example 15); type: physicochemical; details: ascorbic acid about 35-75 mg/mL, ambient conditions, unfrozen
Method: Samples of ^166Ho-DOTMP were prepared according to the procedure in Example 1 using ascorbic acid, 55 mg/mL, as the stabilizer. Identical samples were prepared without ascorbic acid. The solutions were analyzed for radiochemical purity after 1 hour, 6 hours, 10 hours, 24 hours, and 48 hours, using Instant Thin Layer Chromatography (ILTC), Cation Exchange Chromatography (CEC) and High Performance Liquid Chromatography (HPLC).

[5] = 3875 mCi (40 Gy to marrow), melphalan 140 mg/m^2, one patient

SMILES: O=P([O-])(O)CN1CCN(CP(=O)(O)O)CCN(CP(=O)([O-])O)CCN(CP(=O)(O)O)CC1.[166Ho] [^166Ho-DOTMP]
- effective skeletal half-life ([1]; 30 mCi diagnostic dose): 19.9 ± 2.5 h
- average percentage uptake in the skeleton ([1]; 30 mCi diagnostic dose, eight patients): 28±12%
- material present in the urine ([1]; 6 hours post injection): Approximately 50%
- injected dose remaining in whole blood ([1]; 24 hours post injection): a small percentage
- whole blood clearance early T1/2 ([1]; biphasic clearance): 3 ± 2.4 min
- whole blood clearance late T1/2 ([1]; biphasic clearance): 11 ± 4 h
- average red marrow dose ([1]; calculated by MIRD technique): 1.97±0.92 cGy/mCi
- toxicity ([1]; therapy, target 22 Gy to red marrow, three patients): Other than severe hematological suppression, no toxicity was noted
- route of excretion ([2]; gamma camera counting and urine PK): no route of excretion other than the urine
- localization of retained activity ([2]; gamma camera images): retained activity was localized in the skeleton
- hypocalcemia or associated cardiac abnormalities ([2]; serum calcium, ECG and Holter monitoring): no clinical observations of hypocalcemia or associated cardiac abnormalities were noted
- acute toxicities ([2]; therapy dose 25 Gy to red marrow): no unexpected acute toxicities were noted
- time to engraftment after stem cell transplant ([2]; therapy dose calculated to deliver 25 Gy to red marrow, all patients): ≤ 15 days
- days post stem cell transplant to neutrophil engraftment (ANC >500) [3, 5]: Nine
- days post transplant to platelet engraftment (>20,000) [3, 5]: fourteen
- response ([3]; twenty-eight days post transplant, one patient): complete remission
- time the solution is stable, e.g., therapeutically useful [4]: ≥ 72 h
